According to patent US20100113334A1, “METHODS FOR REDUCING OR PREVENTING TRANSMISSION OF NOSOCOMIAL PATHOGENS IN A HEALTH CARE FACILITY” (priority 2003, published 2010):

Key:
[1] = test system: indigenous stool microflora; test: DGGE of PCR-amplified bacterial ribosomal RNA genes from stool (Example 3); type: in vivo, mice; settings: subcutaneous clindamycin
Candida glabrata A239 = test: Minimum-inhibitory concentration for Candida glabrata A239; type: cell-based; settings: clinical isolate A239
Description: Pathogens Studied: E. faecium C68, a previously described VanB-type clinical VRE isolate, was used for the following murine VRE experiments (Donskey et al., J. Microbial. Meth. 1807: 1-8, 2003). […] Klebsiella pneumoniae P62 is a clinical isolate that produces an SHV type extended-spectrum β-lactamase (ESBL). Candida glabrata A239 is a clinical isolate with a fluconazole minimum-inhibitory concentration of 2 μg/mL.

Total Enterococci = test: VRE suppression in a mouse model (Example 1), total enterococci in faeces; type: in vivo, mice
Excerpt: (§1) Mice were colonized with a clinical isolate VanA strain of E. faecium (VRE) isolated from a septicemic patient. A single inoculation of 5×10^8 cfu VRE by oral gavage (Day 0) was followed by treatment with vancomycin in the drinking water to maintain colonization. On day 22, each group received the same vancomycin-containing drinking water. […] The control group consisted of five mice, while the ramoplanin group consisted of four mice.

[2] = test system: clinical isolate VanA strain of E. faecium (VRE); test: VRE suppression in a mouse model (Example 1); type: in vivo, mice
Excerpt: as §1

[3] = Day 22, prior to ramoplanin therapy
[4] = Day 29, completion of ramoplanin therapy
[5] = Day 36, 7 days after completion of ramoplanin therapy

Q: With `CCC[C@@H]1C[C@@H](C(=O)N[C@@H]([C@H]2O[C@H](SC)[C@H](O)[C@@H](O)[C@H]2O)[C@H](C)Cl)N(C)C1` [clindamycin] as the compound, how does the “stool DGGE patterns, mean similarity indices in comparison to pre-treatment patterns” value [1] read?
A: 17%

Q: Which minimum-inhibitory concentration (Candida glabrata A239) does the source give for `OC(Cn1cncn1)(Cn1cncn1)c1ccc(F)cc1F` [fluconazole] here?
A: 2 µg/mL

Q: Which results are given for `CN[C@H](CC(C)C)C(=O)N[C@H]1C(=O)N[C@@H](CC(N)=O)C(=O)N[C@H]2C(=O)N[C@H]3C(=O)N[C@H](C(=O)N[C@H](C(=O)O)c4cc(O)cc(O)c4-c4cc3ccc4O)[C@H](O)c3ccc(c(Cl)c3)Oc3cc2cc(c3O[C@@H]2O[C@H](CO)[C@@H](O)[C@H](O)[C@H]2O[C@H]2C[C@](C)(N)[C@H](O)[C@H](C)O2)Oc2ccc(cc2Cl)[C@H]1O` [vancomycin]?
A: Enterococci: Total Enterococci (Total Enterococci; [3]): 9.6 log 10 cfu/g faeces; Enterococci: Total Enterococci (Total Enterococci; [4]): 9.3 log 10 cfu/g faeces; Enterococci: Total Enterococci (Total Enterococci; [5]): 9.6 log 10 cfu/g faeces; Enterococci: VRE [2, 3]: 9.7 log 10 cfu/g faeces; Enterococci: VRE [2, 4]: 9.4 log 10 cfu/g faeces; % Mice with VRE ([2]; Day 29, completion of ramoplanin therapy (15 mg/kg/day in drinking water, with 25 mg/kg/day vancomycin)): 100%; % Mice with VRE [2, 5]: 100%; Enterococci: VRE [2, 5]: 9.3 log 10 cfu/g faeces
